Data set [1] in a line: MRT in Sprague-Dawley rat at 25 nmol/kg, sc by LC-MS/MS analysis. In kind it is ADME, organism-based. Conditions: in vivo.
Data set [2] can be described thus: Hepatotoxicity in db/db mouse assessed as alanine aminotransferase level in plasma at 25 nmol/kg, sc administered every 2 days for 12 weeks. In kind it is toxicity, organism-based. Conditions: in vivo, 2016 h.
Data set [3] addresses T1, Cholecystokinin receptor type A (Homo sapiens, UniProt P32238).
T1 sequence (P32238 whole entry): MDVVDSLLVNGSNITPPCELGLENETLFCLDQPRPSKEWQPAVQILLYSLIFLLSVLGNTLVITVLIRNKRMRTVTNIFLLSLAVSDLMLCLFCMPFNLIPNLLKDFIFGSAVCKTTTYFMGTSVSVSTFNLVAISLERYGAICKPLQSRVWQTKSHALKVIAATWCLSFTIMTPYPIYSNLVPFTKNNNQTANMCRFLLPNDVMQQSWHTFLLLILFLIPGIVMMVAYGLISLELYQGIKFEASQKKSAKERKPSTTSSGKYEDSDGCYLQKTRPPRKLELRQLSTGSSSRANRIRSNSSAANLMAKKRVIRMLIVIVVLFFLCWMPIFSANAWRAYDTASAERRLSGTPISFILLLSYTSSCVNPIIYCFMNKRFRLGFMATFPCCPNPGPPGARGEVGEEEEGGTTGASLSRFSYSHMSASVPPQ
The data set can be described thus: Agonist activity at human CCK1R expressed in HEK293 cells assessed as ERK1/2 phosphorylation incubated for 5 mins by AlphaScreen assay. In kind it is functional, cell-based. Conditions: hek293. For orientation: In Alpha technology, singlet oxygen from a donor bead excites a nearby acceptor bead.

The test system of the next data set is BRIN-BD11. The data set can be described thus: Insulinotropic activity in rat BRIN-BD11 cells assessed as increase in insulin secretion incubated for 20 mins by radioimmunoassay. In kind it is functional, cell-based. Particulars: DDE = dose-dependent effect.
Data set [4] deals with T2, CCK2R (gastrin/cholecystokinin type B receptor) (Homo sapiens, UniProt P32239).
T2 sequence (P32239 whole entry): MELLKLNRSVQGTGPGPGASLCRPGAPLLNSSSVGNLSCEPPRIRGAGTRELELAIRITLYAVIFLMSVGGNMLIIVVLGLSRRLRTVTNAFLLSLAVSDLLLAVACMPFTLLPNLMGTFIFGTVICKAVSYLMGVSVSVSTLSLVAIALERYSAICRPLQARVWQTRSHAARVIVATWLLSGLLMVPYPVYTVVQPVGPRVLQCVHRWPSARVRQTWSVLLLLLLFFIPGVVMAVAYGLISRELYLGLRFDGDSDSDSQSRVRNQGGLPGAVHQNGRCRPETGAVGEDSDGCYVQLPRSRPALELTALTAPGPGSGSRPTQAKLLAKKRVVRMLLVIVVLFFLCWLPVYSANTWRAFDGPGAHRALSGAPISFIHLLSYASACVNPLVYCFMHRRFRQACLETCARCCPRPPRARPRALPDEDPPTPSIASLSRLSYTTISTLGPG
Description: Agonist activity at human CCK2R expressed in HEK293 cells assessed as ERK1/2 phosphorylation incubated for 5 mins by AlphaScreen assay. Conditions: human, HEK293 cells expressing human CCK2R. The class given is functional, cell-based.

Data set [5] concerns Mus musculus. Description: Anti-diabesity activity in db/db mouse assessed as decrease in fasted blood glucose level at 100 nmol/kg, sc administered once daily for 7 days. The class given is functional, organism-based. Conditions: time 7.0 day.
Data set [6] deals with Mus musculus. Description: Hypoglycemic activity in ICR mouse assessed as improvement in glucose tolerance at 25 nmol/kg, ip administered 30 min before oral glucose administration and measured upto 120 mins by OGTT. In kind it is functional, organism-based.
The target in data set [7] is T3, Glucagon-like peptide 1 receptor (Homo sapiens, UniProt P43220). The data set can be described thus: Agonist activity at human GLP-1R expressed in CHO cells assessed as cAMP release incubated for 20 min by HTRF analysis. In kind it is functional, cell-based. On the technique in general: In TR-FRET formats the signal depends on donor and acceptor labels being close together.
T3 sequence (P43220 whole entry): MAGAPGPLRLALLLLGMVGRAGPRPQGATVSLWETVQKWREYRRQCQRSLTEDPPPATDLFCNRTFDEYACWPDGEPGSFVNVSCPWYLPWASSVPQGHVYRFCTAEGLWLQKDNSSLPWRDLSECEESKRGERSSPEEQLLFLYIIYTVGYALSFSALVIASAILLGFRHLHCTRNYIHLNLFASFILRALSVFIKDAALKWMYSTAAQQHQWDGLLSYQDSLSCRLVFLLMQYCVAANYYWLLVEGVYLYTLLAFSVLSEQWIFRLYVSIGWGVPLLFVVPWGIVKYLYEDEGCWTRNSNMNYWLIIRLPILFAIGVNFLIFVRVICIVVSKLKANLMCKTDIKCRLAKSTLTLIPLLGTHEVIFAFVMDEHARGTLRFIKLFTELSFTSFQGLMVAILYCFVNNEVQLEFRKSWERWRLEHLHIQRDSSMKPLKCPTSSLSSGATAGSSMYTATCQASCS

The target of data set [8] is T3, Glucagon-like peptide 1 receptor. Description: Agonist activity at human GLP-1R expressed in HEK293 cells assessed as cAMP release incubated for 20 min by HTRF analysis. The class given is functional, cell-based. Particulars: hek293.

These results are taken from ChEMBL document CHEMBL5143608, “Peptide-based long-acting co-agonists of GLP-1 and cholecystokinin 1 receptors as novel anti-diabesity agents” (Eur J Med Chem, 2022).

The structures appear in SMILES notation. Activity calls are given as the source filed them. The calls are words filed in the database; no cut-off is given here.

As to `CCCC[C@H](NC(=O)[C@H](Cc1ccc(CS(=O)(=O)O)cc1)NC(=O)[C@H](CC(=O)O)NC(=O)COCCOCCNC(=O)COCCOCCNC(=O)[C@H](CCCNC(=N)N)NC(=O)CNC(=O)[C@H](CCCCN)NC(=O)[C@@H](NC(=O)[C@H](CC(C)C)NC(=O)[C@H](Cc1c[nH]c2ccccc12)NC(=O)[C@H](C)NC(=O)[C@@H](NC(=O)[C@H](Cc1ccccc1)NC(=O)[C@H](CCC(=O)O)NC(=O)[C@H](CCCCNC(=O)COCCOCCNC(=O)COCCOCCNC(=O)CC[C@H](NC(=O)CCCCCCCCCCCCCCCCC(=O)O)C(=O)O)NC(=O)[C@H](C)NC(=O)[C@H](C)NC(=O)[C@H](CCC(N)=O)NC(=O)CNC(=O)[C@H](CCC(=O)O)NC(=O)[C@H](CC(C)C)NC(=O)[C@H](Cc1ccc(O)cc1)NC(=O)[C@H](CO)NC(=O)[C@H](CO)NC(=O)[C@@H](NC(=O)[C@H](CC(=O)O)NC(=O)[C@H](CO)NC(=O)[C@@H](NC(=O)[C@H](Cc1ccccc1)NC(=O)[C@@H](NC(=O)CNC(=O)[C@H](CCC(=O)O)NC(=O)[C@H](C)NC(=O)[C@@H](N)Cc1cnc[nH]1)[C@@H](C)O)[C@@H](C)O)C(C)C)[C@@H](C)CC)C(C)C)C(=O)NCC(=O)N[C@@H](Cc1c[nH]c2ccccc12)C(=O)N[C@@H](CCCC)C(=O)N(C)[C@H](CC(=O)O)C(=O)N(C)[C@@H](Cc1ccccc1)C(N)=O`, the MRT (usually a mean duration of stay, worked out from the concentration-time curve) in data set [1] is 14.7 h. The Activity result is “Non-Toxic” in data set [2] and “Dde” in the data set on BRIN-BD11. The EC50 (usually the midpoint of the concentration-response curve) in [3] was 1.25 nM. Moreover, the EC50 at 5 min in [4] was over 100 nM. Moreover, the outcome in the data set on Mus musculus [5] and with Mus musculus [6] was Active.
`CCCC[C@H](NC(=O)[C@H](Cc1ccc(CS(=O)(=O)O)cc1)NC(=O)[C@H](CC(=O)O)NC(=O)COCCOCCNC(=O)COCCOCCNC(=O)[C@H](CCCCN)NC(=O)CNC(=O)[C@H](CCCCN)NC(=O)[C@@H](NC(=O)[C@H](CC(C)C)NC(=O)[C@H](Cc1c[nH]c2ccccc12)NC(=O)[C@H](CCC(=O)O)NC(=O)[C@@H](NC(=O)[C@H](Cc1ccccc1)NC(=O)[C@H](CCC(=O)O)NC(=O)[C@H](CCCCNC(=O)COCCOCCNC(=O)COCCOCCNC(=O)CC[C@H](NC(=O)CCCCCCCCCCCCCCCCC(=O)O)C(=O)O)NC(=O)[C@H](C)NC(=O)[C@H](C)NC(=O)[C@H](CCC(=O)O)NC(=O)[C@H](CCC(=O)O)NC(=O)[C@H](CCC(=O)O)NC(=O)[C@H](CC(C)C)NC(=O)[C@@H](NC(=O)[C@H](CCC(=O)O)NC(=O)[C@@H](NC(=O)[C@@H](NC(=O)[C@H](CC(=O)O)NC(=O)[C@H](CC(N)=O)NC(=O)[C@@H](NC(=O)[C@H](Cc1ccc(O)cc1)NC(=O)[C@@H](NC(=O)CNC(=O)[C@H](CCC(=O)O)NC(=O)C(C)(C)NC(=O)[C@@H](N)Cc1cnc[nH]1)[C@@H](C)O)[C@@H](C)O)C(C)C)[C@@H](C)O)[C@@H](C)O)[C@@H](C)CC)[C@@H](C)CC)C(=O)NCC(=O)N[C@@H](Cc1c[nH]c2ccccc12)C(=O)N[C@@H](CCCC)C(=O)N(C)[C@H](CC(=O)O)C(=O)N(C)[C@@H](Cc1ccccc1)C(N)=O` yielded an MRT in data set [1] of 25.9 h. The Activity result in [2] was “Non-Toxic”; in the data set with BRIN-BD11, “Dde”. Also, the results for the EC50 in data set [3], in data set [7] and in data set [8] were 0.83 nM, 0.057 nM and 0.074 nM, respectively. Besides, the EC50 at 5 min in data set [4] is over 100 nM. Also, in the data set on Mus musculus [5], the result was Active.
